Experiments:
Experiment in all cases: fluorescence titration
[1] = system: 18Ras (RNA, G4) GGGAGGGGCGGGUCUGGG; settings: 2.5 mM Mg2+, pH 7.4, 25 °C, dye 3 μM, apparent
[2] = system: 27Myc (DNA, G4) TGGGGAGGGTGGGGAGGGTGGGGAAGG; settings: 153 mM Na+, 2.7 mM K+, 2.5 mM Mg2+, pH 7.4, 25 °C, dye 3 μM, apparent
[3] = system: 27Myc (DNA, G4) TGGGGAGGGTGGGGAGGGTGGGGAAGG; settings: 140 mM K+, 10 mM Na+, 2.5 mM Mg2+; PBS140KM (phosphate) pH 7.4, 25 °C; 3 μM dye; apparent
[4] = system: 22Kit (DNA, G4) AGGGAGGGCGCTGGGAGGAGGG; settings: 140 mM K+, 10 mM Na+, 2.5 mM Mg2+; PBS140KM (phosphate) pH 7.4, 25 °C; 3 μM dye; apparent
[5] = system: 18Ras (RNA, G4) GGGAGGGGCGGGUCUGGG; settings: 140 mM K+, 10 mM Na+, 2.5 mM Mg2+; PBS140KM (phosphate) pH 7.4, 25 °C; 3 μM dye; apparent
[6] = system: 26Tel (DNA, G4) TTAGGGTTAGGGTTAGGGTTAGGGTT; settings: 2.5 mM Mg2+, 3 μM dye, apparent
[7] = system: 22AG (DNA, G4) AGGGTTAGGGTTAGGGTTAGGG; settings: 2.5 mM Mg2+, 3 μM dye, apparent
[8] = system: dsDNA (DNA, duplex) GGGTTACTACGAACTGG/CCAGTTCGTAGTAACCC; settings: 153 mM Na+, 2.7 mM K+, 2.5 mM Mg2+, pH 7.4, 25 °C, dye 3 μM, apparent
[9] = system: 26Tel (DNA, G4) TTAGGGTTAGGGTTAGGGTTAGGGTT; settings: 153 mM Na+, 2.7 mM K+, 2.5 mM Mg2+, pH 7.4, 25 °C, dye 3 μM, apparent
[10] = system: 22Kit (DNA, G4) AGGGAGGGCGCTGGGAGGAGGG; settings: 153 mM Na+, 2.7 mM K+, 2.5 mM Mg2+, pH 7.4, 25 °C, dye 3 μM, apparent
[11] = system: 20Src (DNA, G4) GGGCGGCGGGCTGGGCGGGG; settings: 2.5 mM Mg2+, pH 7.4, 25 °C, dye 3 μM, oligonucleotide to 15 μM, apparent, n.d., assumed
[12] = system: 22AG (DNA, G4) AGGGTTAGGGTTAGGGTTAGGG; settings: 2.5 mM Mg2+, pH 7.4, 25 °C, dye 3 μM, apparent
[13] = system: 20Src (DNA, G4) GGGCGGCGGGCTGGGCGGGG; settings: 2.5 mM Mg2+, 3 μM dye, apparent
[14] = system: dsDNA (DNA, duplex) GGGTTACTACGAACTGG/CCAGTTCGTAGTAACCC; settings: 140 mM K+, 10 mM Na+, 2.5 mM Mg2+; PBS140KM (phosphate) pH 7.4, 25 °C; 3 μM dye; apparent
[15] = 153 mM Na+, 2.7 mM K+, PBS153NM (phosphate)
[16] = 140 mM K+, 10 mM Na+, PBS140KM (phosphate) pH 7.4, 25 °C
[17] = PBS153NM, oligonucleotide to 15 μM, n.d., assumed
[18] = 153 mM Na+, 2.7 mM K+, PBS153NM
[19] = 140 mM K+, 10 mM Na+, PBS140KM, oligonucleotide to 15 μM, n.d., assumed
[20] = 153 mM Na+, 2.7 mM K+, PBS153NM, oligonucleotide to 15 μM, n.d., assumed
[21] = 153 mM Na+, 2.7 mM K+, PBS153NM (phosphate) pH 7.4, 25 °C

Row | SMILES | Kd [1, 15] [µM] | Kd ([2]; PBS153NM (phosphate)) [µM] | Kd [3] [µM] | Kd [4] [µM] | Kd [5] [µM] | Kd [6, 16] [µM] | Kd [7, 16] [µM] | Kd [8, 17] [µM] | Kd ([9]; PBS153NM (phosphate)) [µM] | Kd ([10]; PBS153NM (phosphate)) [µM] | Kd ([11]; 140 mM K+, 10 mM Na+, PBS140KM) [µM] | Kd [11, 18] [µM] | Kd [12, 19] [µM] | Kd [12, 15] [µM] | Kd [9, 17] [µM] | Kd [10, 17] [µM] | Kd [13, 16] [µM] | Kd [12, 20] [µM] | also measured
1 | Cc1ccc2c(c1)sc(-c1ccc(N(C)C)cc1)[n+]2C | 15.3 ± 1.6 | 13.5 ± 5.1 | 6.9 ± 0.8 | 9.9 ± 1.2 | 19.0 ± 2.9 | 4.0 ± 0.4 | 5.0 ± 0.5 | > 40 | 29.5 ± 5.6 | 4.8 ± 0.8 | > 40 | > 40 | – | – | – | – | – | – | –
2 | Cc1ccc2c(c1)sc(-c1ccc(N(C)C)cc1)[n+]2CCN | – | – | – | 8.9 ± 3.5 | – | 9.7 ± 5.5 | – | > 40 | – | – | > 40 | > 40 | > 40 | 23.6 ± 9.1 | > 40 | > 40 | – | – | Kd [1, 19]: > 40 µM; Kd [1, 20]: > 40 µM; Kd [2, 17]: > 40 µM
3 | Cc1ccc2c(c1)sc(-c1ccc(N(C)C)cc1)[n+]2CCNC(=O)COCC(=O)NCCOCCOCCOCCOCCOCCOCCOCCOCCOCCOCCOCCN | 16.3 ± 1.8 | 29.1 ± 2.5 | 13.4 ± 0.8 | 36.6 ± 4.4 | 15.3 ± 1.9 | 23.9 ± 3.1 | – | > 40 | – | – | – | > 40 | > 40 | 20.3 ± 9.9 | > 40 | > 40 | 20.2 ± 2.3 | – | –
4 | Cc1ccc2c(c1)sc(-c1ccc(N(C)C)cc1)[n+]2CCNC(=O)COCCOCCN | 15.5 ± 1.7 | 10.8 ± 1.3 | 8.7 ± 0.7 | 20.5 ± 1.4 | 11.8 ± 0.6 | 5.3 ± 0.4 | 11.8 ± 1.4 | > 40 | 34.3 ± 4.0 | – | – | > 40 | – | – | – | > 40 | 38.6 ± 5.9 | > 40 | –
5 | Cc1ccc2c(c1)sc(-c1ccc(N(C)C)cc1)[n+]2CCNC(=O)NCCCNCCCCNCCCN | 14.7 ± 3.2 | 5.3 ± 0.8 | 6.8 ± 0.9 | 6.8 ± 0.6 | 12.8 ± 1.9 | 2.4 ± 0.4 | 5.4 ± 1.0 | – | – | 7.4 ± 3.9 | – | – | – | – | – | – | 18.8 ± 2.4 | – | Kd [13, 21]: 4.1 ± 0.5 µM; Kd [14]: 16.0 ± 1.0 µM; Kd [6, 21]: 4.6 ± 0.3 µM; Kd [7, 21]: 8.2 ± 0.8 µM; Kd ([8]; PBS153NM (phosphate)): 9.4 ± 1.0 µM
6 | Cc1ccc2c(c1)sc(-c1ccc(N(C)C)cc1)[n+]2CCO | 28.1 ± 4.0 | 14.1 ± 1.5 | 19.9 ± 0.9 | 34.9 ± 6.6 | 25.0 ± 3.1 | 11.1 ± 1.5 | 20.1 ± 1.5 | > 40 | – | 12.3 ± 1.8 | > 40 | > 40 | – | – | > 40 | – | – | > 40 | –
